Experimental data reported in ChEMBL document CHEMBL5729568, “Ras inhibitors” (2023).

Legend:
[1] = (§1) Biochemical Assay: A variety of Ras proteins may be inhibited by compounds of the present invention (e.g., K-Ras, N-Ras, H-Ras, and mutants thereof at positions 12, 13 and 61, such as G12C, G12D, G12V, G12S, G13C, G13D, and Q61L, and others described herein). The purpose of this biochemical assay is to measure the ability of test compounds to covalently label nucleotide-loaded K-Ras isoforms. […] The sample is incubated at 25? C. for a time period of up to 24 hours prior to quenching by the addition of 10 uL of 5% Formic Acid. Quenched samples are centrifuged at 15000 rpm for 15 minutes in a benchtop centrifuge before injecting a 10 uL aliquot onto a reverse phase C4 column and eluting into the mass spectrometer with an increasing acetonitrile gradient in the mobile phase. Analysis of raw data may be carried out using Waters MassLynx MS software, with % bound calculated from the deconvoluted protein peaks for labeled and unlabeled K-Ras.
[2] = as §1; remark: listed apart in the source
[3] = as §1; remark: listed apart in the source
[4] = as §1; remark: listed apart in the source
[5] = as §1; remark: listed apart in the source
[6] = as §1; remark: listed apart in the source
[7] = as §1; remark: listed apart in the source

Row | SMILES | IC50 [1] | IC50 [2] | IC50 [3] | IC50 [4] | IC50 [5] | IC50 [6] | IC50 [7]
1 | C=CC(=O)Nc1ncc(C(=O)N(C)[C@H](C(=O)N[C@H]2Cc3cccc(c3)-c3ccc4c(c3)c(c(-c3cccnc3C(C)OC)n4CC)CC(C)(C)COC(=O)[C@@H]3CCCN(N3)C2=O)C(C)C)n1C (stereo not given in full) | in the range around 5.5 µM | < 0.01 µM | in the range around 5.5 µM | in the range around 5.5 µM | in the range around 0.55 µM | < 0.01 µM | in the range around 5.5 µM
2 | COC(C)c1ncccc1-c1c2c3cc(ccc3n1CC(F)(F)F)N1CCO[C@@H](C[C@H](NC(=O)[C@@H](COC3CN(C(=O)C#CC(C)(C)N(C)C)C3)C(C)C)C(=O)N3CCC[C@H](N3)C(=O)OCC(C)(C)C2)C1 (stereo not given in full) | > 10 µM | in the range around 5.5 µM | in the range around 5.5 µM | > 10 µM | > 10 µM | < 0.01 µM | > 10 µM
3 | C=CC(=O)N1CCC(F)(C(=O)N(C)[C@H](C(=O)N[C@H]2C[C@H]3CN(CCO3)c3ccc4c(c3)c(c(-c3cccnc3C(C)OC)n4CC)CC(C)(C)COC(=O)[C@@H]3CCCN(N3)C2=O)C(C)C)CC1 (stereo not given in full) | in the range around 5.5 µM | in the range around 0.55 µM | in the range around 5.5 µM | in the range around 5.5 µM | in the range around 5.5 µM | in the range around 0.055 µM | in the range around 5.5 µM
4 | COC(C)c1ncccc1-c1c2c3cc(ccc3n1CC(F)(F)F)-c1cccc(c1)CN(NC(=O)[C@@H](COC1CN(C(=O)C#CC(C)(C)N(C)C)C1)C(C)C)C(=O)N1CCC[C@H](N1)C(=O)OCC(C)(C)C2 (stereo not given in full) | in the range around 5.5 µM | in the range around 0.55 µM | in the range around 5.5 µM | in the range around 5.5 µM | in the range around 5.5 µM | < 0.01 µM | in the range around 5.5 µM
5 | COC(C)c1ncccc1-c1c2c3cc(ccc3n1CC(F)(F)F)-c1cc(F)cc(c1)C[C@H](NC(=O)[C@@H](COC1CN(C(=O)C#CC(C)(C)N(C)C)C1)C(C)C)C(=O)N1CCC[C@H](N1)C(=O)OCC(C)(C)C2 (stereo not given in full) | in the range around 5.5 µM | in the range around 5.5 µM | in the range around 5.5 µM | > 10 µM | in the range around 5.5 µM | < 0.01 µM | > 10 µM
6 | CCn1c(-c2cccnc2C(C)OC)c2c3cc(ccc31)-c1cc(F)cc(c1)C[C@H](NC(=O)[C@@H](COC1CN(C(=O)C#CC(C)(C)N(C)C)C1)C(C)C)C(=O)N1CCC[C@H](N1)C(=O)OCC(C)(C)C2 (stereo not given in full) | > 10 µM | in the range around 5.5 µM | in the range around 5.5 µM | > 10 µM | in the range around 5.5 µM | in the range around 0.055 µM | > 10 µM
7 | C=CC(=O)N1CCOC2(CCN(C(=O)N(C)[C@H](C(=O)N[C@H]3Cc4cc(CF)cc(c4)-c4ccc5c(c4)c(c(-c4cccnc4C(C)OC)n5CC(F)(F)F)CC(C)(C)COC(=O)[C@@H]4CCCN(N4)C3=O)C(C)C)CC2)C1 (stereo not given in full) | in the range around 0.55 µM | in the range around 0.055 µM | in the range around 0.55 µM | in the range around 0.55 µM | in the range around 0.055 µM | in the range around 0.55 µM | in the range around 0.55 µM
8 | CCn1c(-c2cccnc2C(C)OC)c2c3cc(ccc31)-c1csc(n1)C[C@H](NC(=O)[C@@H](COC1CN(C(=O)C#CC(C)(C)N(C)C)C1)C(C)C)C(=O)N1CCC[C@H](N1)C(=O)OCC(C)(C)C2 (stereo not given in full) | > 10 µM | in the range around 5.5 µM | in the range around 5.5 µM | > 10 µM | in the range around 5.5 µM | < 0.01 µM | > 10 µM
9 | CCn1c(-c2cccnc2C(C)OC)c2c3cc(ccc31)N1CCO[C@@H](C[C@H](NC(=O)[C@@H](COC3CN(C(=O)C#CC(C)(C)N(C)C)C3)C(C)C)C(=O)N3CCC[C@H](N3)C(=O)OCC(C)(C)C2)C1 (stereo not given in full) | > 10 µM | in the range around 5.5 µM | > 10 µM | > 10 µM | > 10 µM | < 0.01 µM | > 10 µM
10 | CCn1c(-c2cccnc2C(C)OC)c2c3cc(ccc31)-c1csc(n1)C[C@H](NC(=O)CCOC1CN(C(=O)C#CC(C)(C)N(C)C)C1)C(=O)N1CCC[C@H](N1)C(=O)OCC(C)(C)C2 (stereo not given in full) | in the range around 5.5 µM | in the range around 5.5 µM | in the range around 5.5 µM | in the range around 5.5 µM | in the range around 5.5 µM | < 0.01 µM | > 10 µM and in the range around 5.5 µM
